Results from patent US20090047246A1, “NOVEL INHIBITORS OF HEPATITIS C VIRUS REPLICATION” (InterMune, Inc., priority 2007, published 2009).

Target: T1, HCV NS3 helicase (Hepatitis C virus genotype 1b, UniProt P26663)
T1 construct: full-length NS3 (1-631), purified at Array BioPharma
Assay: HCV Helicase Prompt FRET Assay (Example A)
Assay type: biochemical
Details: HCV NS3 helicase; tables do not say whether Example A or Example B assay; read-out: IC50 Activity
Method: Test compounds were diluted to 2.5 mM by adding 6 uL of a 10 mM solution of the compound to 18 uL of DMSO in a 384-well Costar polypropylene plate. Serial dilutions (2.5×) were performed in the plate using DMSO as the diluent. 1 ul of solution was transferred from each well to a new 384-well Costar polypropylene plate.
A 2× mixture was prepared containing 100 nM helicase substrate, 500 nM helicase capture strand (CS), and 600 μM ATP by diluting stock solutions with assay buffer consisting of 25 mM MOPS, pH 7.0, and 1.5 mM MgCl2, 0.005% (v/v) Triton X-100. Stock helicase substrate was prepared by annealing a FAM-labeled oligonucleotide to a BHQ-1 labeled oligonucleotide, which were both custom synthesized and HPLC-purified at Biosearch Technologies. The FAM-labeled and BHQ-labeled oligonucleotide had the following sequences:
The helicase capture strand was custom synthesized and purified at Integrated DNA Technologies. The helicase capture strand had the following sequence:
The ATP solution was prepared in MilliQ water, pH adjusted to approximately 7 with NaOH. ATP powder was obtained from Sigma (A-7699). The concentration was determined via A260 (ext. coeff=15,400 M^−1cm^−1).
11.5 μL of assay buffer was added to all wells of the plate containing luL of test compound. 5 μL of the Compound/assay buffer mixture was added to a black polystyrene 384-well Proxiplate. A 4× Enzyme solution was prepared by diluting enzyme stock containing full-length NS3 (1-631), purified at Array BioPharma, with assay buffer. 5 μL of the 4× Enzyme solution was added to the Proxiplate and incubated for 5 minutes (for control wells lacking enzyme, assay buffer was used instead). 10 μL of 2× substrate/CS/ATP mixture was then added to all wells of Proxiplate. The final assay conditions included 50 nM Substrate, 250 nM Capture Strand, 300 μM ATP, 5 or 6 nM Enzyme, and 2% (v/v) DMSO. The reaction proceeded for 70 cycles (˜30 min.) on an Envision at room temperature. The plate was read using the Envision (top mirror=FITC; Excitation filter=FITC 485; Emission filter=FITC 535). The fluorescence intensity was recorded for a total of 30 minutes. The initial rates of the reactions was calculated and used to calculate IC50 values. The IC50 curve fitting was performed using either a 4-parameter or 5-parameter logistic equation.

T1 sequence (P26663 1027-1657): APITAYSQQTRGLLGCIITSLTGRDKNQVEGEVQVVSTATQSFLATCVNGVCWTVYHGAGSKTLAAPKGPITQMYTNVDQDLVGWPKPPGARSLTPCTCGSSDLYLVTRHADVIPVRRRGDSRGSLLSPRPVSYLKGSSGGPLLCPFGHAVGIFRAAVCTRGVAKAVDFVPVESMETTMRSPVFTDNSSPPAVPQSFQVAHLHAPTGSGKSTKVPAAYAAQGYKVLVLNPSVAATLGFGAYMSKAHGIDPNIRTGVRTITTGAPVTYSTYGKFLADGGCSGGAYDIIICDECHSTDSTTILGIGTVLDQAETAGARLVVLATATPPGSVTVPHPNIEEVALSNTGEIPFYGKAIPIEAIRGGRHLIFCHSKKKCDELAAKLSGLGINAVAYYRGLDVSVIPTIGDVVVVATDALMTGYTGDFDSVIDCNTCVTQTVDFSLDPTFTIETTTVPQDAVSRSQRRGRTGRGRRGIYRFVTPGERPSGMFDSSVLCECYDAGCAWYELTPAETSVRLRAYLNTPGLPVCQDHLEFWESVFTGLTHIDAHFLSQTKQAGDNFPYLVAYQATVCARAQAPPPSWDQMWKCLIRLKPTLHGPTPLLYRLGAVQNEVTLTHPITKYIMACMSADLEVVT

Structure (SMILES) | IC50 [µM]
O=C(O)Cc1c(C(=O)c2cccc(-c3ccnc(Cl)c3)c2)[nH]c2ccccc12 [Example 238] | 10 to 50
O=C(O)Cc1c(C(=O)c2cccc(-c3ccc(Cl)cc3Cl)c2)[nH]c2ccccc12 [Example 239] | < 10
O=C(O)Cc1c(C(=O)c2cccc(-c3ccc(Cl)c(Cl)c3)c2)[nH]c2ccccc12 [Example 240] | < 10
O=C(O)Cc1c(C(=O)c2cccc(-c3cccc(Cl)c3Cl)c2)oc2ccccc12 [Example 241] | < 10
O=C(O)Cc1c(C(=O)c2cccc(-c3ccc(Cl)cc3Cl)c2)oc2ccccc12 [Example 242] | < 10
O=C(O)Cc1c(C(=O)c2cccc(-c3ccc(Cl)c(Cl)c3)c2)oc2ccccc12 [Example 243] | < 10
O=C(O)Cc1c(C(=O)c2cccc(-c3cc(Cl)cc(Cl)c3)c2)oc2ccccc12 [Example 244] | < 10
CC(C)c1cccc(-c2cccc(C(=O)c3oc4ccccc4c3CC(=O)O)c2)c1 [Example 245] | < 10
O=C(O)Cc1c(C(=O)c2ccc(-c3ccncc3)cc2)[nH]c2ccccc12 [Example 247] | 10 to 50
O=C(O)Cc1c(C(=O)c2ccc(Br)cc2)n(Cc2ccccc2)c2ccccc12 [Example 248] | 10 to 50
O=C(O)Cc1c(C(=O)Cc2ccc(-c3ccccc3)cc2)[nH]c2ccccc12 [Example 249] | 10 to 50
Cn1c(C(=O)Cc2ccc(-c3ccccc3)cc2)c(CC(=O)O)c2ccccc21 [Example 250] | 10 to 50
O=C(O)Cc1c(C(=O)C(Cc2ccccc2)c2ccc(-c3ccccc3)cc2)[nH]c2ccccc12 (centres unmarked) [Example 251] | < 10
O=C(O)Cc1c(C(=O)c2ccc(-c3ccc(Cl)cc3)cc2)[nH]c2ccccc12 [Example 252] | 10 to 50
O=C(O)Cc1c(C(=O)c2ccc(-c3cccc(Cl)c3)cc2)[nH]c2ccccc12 [Example 253] | 10 to 50
O=C(O)Cc1c(C(=O)c2ccc(-c3ccccc3Cl)cc2)[nH]c2ccccc12 [Example 254] | < 10

Structure (SMILES) | IC50 [µM]
O=C(O)Cc1c(C(=O)c2ccc(-c3ccccc3Cl)cc2)[nH]c2ccccc12 [Example 255] | 10 to 50
Cc1ccc(-c2ccc(C(=O)c3[nH]c4ccccc4c3CC(=O)O)cc2)cc1 [Example 256] | 10 to 50
O=C(O)Cc1c(C(=O)c2ccc(-c3ccc(Cl)c(Cl)c3)cc2)[nH]c2ccccc12 [Example 257] | < 10
O=C(O)Cc1c(C(=O)Cc2ccccc2)n(Cc2ccccc2)c2ccccc12 [Example 258] | 10 to 50
O=C(O)Cc1c(C(=O)Cc2ccc(F)cc2)n(Cc2ccccc2)c2ccccc12 [Example 259] | 10 to 50
O=C(O)Cc1c(C(=O)Cc2ccccc2Br)n(Cc2ccccc2)c2ccccc12 [Example 260] | < 10
Cc1cc(-c2ccc(C(=O)c3[nH]c4ccccc4c3CC(=O)O)cc2)ccc1Cl [Example 261] | < 10
Cc1ccc(-c2ccc(C(=O)c3[nH]c4ccccc4c3CC(=O)O)cc2)cc1C [Example 262] | 10 to 50
NC(=O)c1cccc(-c2ccc(C(=O)c3[nH]c4ccccc4c3CC(=O)O)cc2)c1 [Example 263] | 10 to 50
O=C(O)Cc1c(C(=O)c2ccc(-c3cccc(CO)c3)cc2)[nH]c2ccccc12 [Example 264] | 10 to 50
NC(=O)c1ccc(-c2ccc(C(=O)c3[nH]c4ccccc4c3CC(=O)O)cc2)cc1 [Example 265] | 10 to 50
O=C(O)Cc1c(C(=O)c2ccc(-c3ccc(C(=O)O)cc3)cc2)[nH]c2ccccc12 [Example 266] | 10 to 50
Cc1ccc(-c2ccc(C(=O)c3[nH]c4ccccc4c3CC(=O)O)cc2)cc1Cl [Example 267] | < 10
CC(C)(C)OC(=O)NCc1cccc(-c2ccc(C(=O)c3[nH]c4ccccc4c3CC(=O)O)cc2)c1 [Example 268] | < 10
O=C(O)Cc1c(C(=O)c2ccc(-c3ccccc3C(F)(F)F)cc2)[nH]c2ccccc12 [Example 269] | 10 to 50
O=C(O)Cc1c(C(=O)c2ccc(-c3ccccc3Br)cc2)[nH]c2ccccc12 [Example 270] | 10 to 50
